Laboratory results taken from patent US4038308A, “Prostaglandin derivatives” (American Home Products Corporation, priority 1976, dated 1977).

What was measured:
[1] = system: bronchoconstricting effects of a standard dose of acetylcholine; test: Bronchodilation upon aerosol inhalation in the guinea pig: inhibition of acetylcholine bronchoconstriction (method of Rosenthale et al.); assay type: in vivo; details: acetylcholine i.v. dose producing ca. 30% bronchoconstriction
Excerpt: In using the compounds of the invention to produce bronchodilating effects in warm-blooded animals, they may be administered in a variety of dosage forms: oral, injectable, and aerosol inhalation. Aerosol inhalation is a preferred method because of its rapid onset of action, great potency, and specificity of action. The particular dosage to obtain the bronchodilating effect will vary with the particular compound employed, the particular animal involved, and the degree of bronchodilation desired. In the guinea pig, by aerosol inhalation, the dose to produce bronchodilation is from about 0.15 micrograms to about 25 micrograms, and preferably from about 0.15 to about 15 micrograms. The bronchodilation produced upon aerosol inhalation can be observed by the method of Rosenthale et al., J. Pharmacol. Exp. Ther., 178, 541 (1971). Using this procedure the following results were obtained:
*The dose (i.v.) of acetylcholine which produces a ca. 30%

[2] = Hypotensive effect (blood pressure change) in the anesthetized dog, intravenous route; assay type: in vivo; details: dose 100 μg/kg., average of two animals
Method: In the use of the compounds of the invention to produce hypotensive effects in warm-blooded animals, administration by the injectable route is preferred, preferably the intravenous route.
Thus in the anesthetized dog by the intravenous route the dose to produce hypotension is from about 1 μg/kg. to about 200 μg/kg. and preferably from about 10 μg/kg. to about 100 μg/kg. Using this procedure the following results were obtained.

SMILES | Percent Inhibition of the bronchoconstricting effects of a standard dose of acetylcholine ([1]; dose 0.15 μg) [%] | Percent Inhibition of the bronchoconstricting effects of a standard dose of acetylcholine ([1]; dose 1.50 μg) [%] | Percent Inhibition of the bronchoconstricting effects of a standard dose of acetylcholine ([1]; dose 15 μg) [%] | Percent Inhibition of the bronchoconstricting effects of a standard dose of acetylcholine ([1]; dose .015 μg) [%] | Δ B.P. [2] [mm. mg]
C#C[C@@H]1CC(=O)[C@H](CCCCCCC(=O)O)[C@H]1/C=C/[C@@H](O)CCCCC [3α-Ethynyl-2β-[(3S)-3-Hydroxy-Trans-1-Octenyl]-5-Oxo-1α-Cyclopentaneheptanoic Acid] | 52 | 58 | 76 | 28 | 
C#CC1CC(=O)[C@H](C/C=C\CCCC(=O)O)[C@H]1/C=C/[C@H](O)CCCCC (stereo partly drawn) [7-([3RS]-3-Ethynyl-2β-[(3R)-3-Hydroxy-Trans-1-Octenyl]-5-Oxo-1β-Cyclopentyl)-Cis-5-Heptenoic Acid] |  | 43 | 68 |  | 
C#CC1CC(=O)[C@H](C/C=C\CCCC(=O)O)[C@H]1/C=C/[C@@H](O)CCCCC (stereo partly drawn) [7-([3RS]-3-Ethynyl-2β-[(3S)-3-Hydroxy-Trans-1-Octenyl]-5-Oxo-1α-Cyclopentyl)-Cis-5-Heptenoic Acid] |  |  |  |  | -31
C#CC1CC(=O)[C@H](C/C=C\CCCC(=O)O)[C@H]1/C=C/C(O)(C#C)CCCCC (stereo partly drawn) [7-[(3RS)-3-Ethynyl-2β-[(3RS)-3-Ethynyl-3-Hydroxy-Trans-1-Octenyl]-5-Oxo-1α-Cyclopentyl]-Cis-5-Heptenoic Acid] | 56 | 86 |  | 42 | -41
C#CC1CC(=O)[C@H](CCCCCCC(=O)O)[C@H]1/C=C/C(C)(O)CCCCC (stereo partly drawn) [(3RS)-3-Ethynyl-2β[(3RS)-3-Hydroxy-3-Methyl-Trans-1-Octenyl]-5-Oxo-1α-cyclopentane-Heptanoic Acid] | 54 | 56 | 37 |  | -16
C#CC1CC(=O)[C@H](CCCCCCC(=O)O)[C@H]1/C=C/C(=O)CCCCC (stereo partly drawn) [(3RS)-3-Ethynyl-5-Oxo-2β-(3-Oxo-Trans-1-Octenyl)-1α-Cyclopentaneheptanoic Acid] |  | 36 | 75 |  | 
